The results in this text go back to US20230331739A1, “INDOLO HEPTAMYL OXIME ANALOG CRYSTAL AS PARP INHIBITOR AND METHOD FOR PREPARING SAME” (CHIA TAI TIANQING PHARMACEUTICAL GROUP CO., LTD., priority 2020, published 2023).

For orientation: IC50 means the point on the concentration scale where inhibition reaches its midpoint. For orientation: half-life means the time needed for the level to fall by half in the phase considered. Low values mean fast loss, high ones slow loss.

Data set [1] relates to MDA-MB-436 cells with BRCA1 mutation. Nature of the data set: Anti-proliferation study on MDA-MB-436 cells (CellTiter-Glo). The class given is cell-based. Particulars: Homo sapiens, MDA-MB-436, 168 h; 7 days incubation. How it is done:
Materials: test compounds; RPMI-1640 medium; fetal bovine serum; penicillin/streptomycin antibiotic; MDA-MB-436 cells; Envision Multimode Plate Reader (PerkinElmer). MDA-MB-436 cells were seeded in a white 96-well plate by adding 80 μL of cell suspension (containing 3000 MDA-MB-436 cells) to each well. The cell plate was incubated in a CO2 incubator overnight. The test compounds were serially 5-fold diluted to the 8th concentration with a multichannel pipette, i.e., from 2 mM to 26 nM, in duplicate. 78 μL of medium was added to an intermediate plate, and the serially diluted compound was transferred to the intermediate plate at 2 μL per well. After being mixed well, the mixture was transferred to the cell plate at 20 μL per well. […] Another cell plate was provided for reading signal values on the day of compound addition and these signal values were used as Max values in data analysis. Promega CellTiter-Glo was added to the cell plate at 25 μL per well and the luminescence signals were stabilized by incubation for 10 min at room temperature. Readings were taken using a PerkinElmer Envision Multimode Plate Reader. […]
(In general: In ATP-based viability assays light output follows the ATP content of the culture.)

Data set [2] can be described thus: Accelerated stability test at 40° C.±2° C. and 75±5% RH. Type of data set: physicochemical. Particulars: 40° C. ± 2° C./75 ± 5% RH. The method, then:
2. Accelerated Test • Examination conditions: Samples of crystalline form A of the compound of formula (I) were packed into double-layer pharmaceutical low-density polyethylene bags. Each layer of the pharmaceutical low-density polyethylene bag was sealed, then the bags were put into aluminum foil bags, and the aluminum foil bags were heat-sealed. Accelerated test was conducted at 40° C.±2° C. and 75±5% RH.

A short description of data set [3]: Preliminary stability examination at 60° C. and 75% humidity. The class given is physicochemical. Particulars: 60° C. 75% RH. The method, then:
1. Preliminary Stability Examination • Examination conditions: The stability of crystalline form A and crystalline form B was simultaneously examined at 60° C. and 75% humidity.

Data set [4] can be described thus: Single-dose pharmacokinetic study in mice. Type of data set: in vivo, male C57BL/6 mice. How it is done: Objectives: To evaluate the pharmacokinetic behavior in male C57BL/6 mice and to determine the drug concentrations of the compound in the plasma, liver and cerebrospinal fluid after a single dose.
Procedures: Healthy adult male C57BL/6 mice were selected for intragastric administration. The candidate compound was mixed with an appropriate amount of 10% DMSO/90% (20% hydroxypropyl-@-cyclodextrin), vortexed and sonicated to prepare a 0.5 mg/mL clear solution for later use. After the mice were administered intravenously at 1 mg/kg and orally at 5 mg/kg, whole blood was collected at certain time points. Plasma was separated, and liver and cerebrospinal fluid were collected. After pretreatment of the samples, the drug concentration was measured by LC-MS/MS, and pharmacokinetic parameters were calculated using Phoenix WinNonlin software.

Read-outs that look alike come from different tables or passages of the source.

In turn, `C[C@]1(c2ccc(-c3[nH]c4cc(F)cc5c4c3CONC5=O)cc2)CCCN1.Cl` [Crystalline form A] came in with an IC50 in data set [1] of 8.4 nM. In addition, in data set [2] (Initial values), the Appearance result is given as “Earthy yellow”, the Content was 98.0%, the Isomer entry is “Not detectable” and the Total impurities is on record as 0.45%. In data set [2] (Initial values), the Water content was 2.07%. In addition, in data set [2] (Month 1), the Appearance entry was “Earthy yellow”, the Content is reported as 96.2%, the Isomer result is “Not detectable” and the Total impurities is 0.75%. The Water content in data set [2] (Month 1) is given as 2.50%. In data set [2] (Month 2), the Appearance entry was “Earthy yellow”, the Content stood at 96.9%, the Isomer entry is listed as “Not detectable” and the Total impurities came to 0.78%. Moreover, the Water content in data set [2] (Month 2) turned out to be 2.26%. In data set [2] (Month 3), the Appearance entry is on record as “Earthy yellow”, the Content was determined as 96.9%, the Isomer entry is “Not detectable” and the Total impurities is 0.62%. In addition, the Water content in data set [2] (Month 3) was 1.89%. Further, in data set [2] (Month 6), the Appearance entry is recorded as “Earthy yellow”, the Content was determined as 97.5%, the Isomer entry was “Not detectable” and the Total impurities is recorded as 0.93%. For the same compound, the Water content in data set [2] (Month 6) was 2.14%. Besides, in data set [3], the “Preliminary stability examination (content, %) Day 0” value is recorded as 99.73% and the “Preliminary stability examination (content, %) Day 10” value was 99.72%.
Turning to `C[C@]1(c2ccc(-c3[nH]c4cc(F)cc5c4c3CONC5=O)cc2)CCCN1.Cl` [Crystalline form B], in data set [3], the “Preliminary stability examination (content, %) Day 0” value worked out at 99.09% and the “Preliminary stability examination (content, %) Day 10” value came to 98.93%.
For the compound `CNCc1ccc(-c2[nH]c3cc(F)cc4c3c2CCNC4=O)cc1` [Rucaparib, reference compound], the Maximum concentration in data set [4] (IV: 1 mg/kg PO: 5 mg/kg) was 24.8 nM. The AUC(0-t) in data set [4] (male, C57BL/6, mouse, plasma, IV 1 mg/kg, read-out: AUC0-last (intravenous injection)) was determined as 0.255 µM·h; in data set [4] (male, C57BL/6, mouse, plasma, PO 5 mg/kg, read-out: AUC0-last (oral)), 0.145 µM·h. For the same compound, the half-life in data set [4] (male, C57BL/6, mouse, plasma, IV: 1 mg/kg PO: 5 mg/kg) is 1.78 h.
